Measured values: patent US10526337B2, “Heteroaryl derivative or pharmaceutically acceptable salt thereof, preparation method therefor, and pharmaceutical composition for preventing or treating diseases associated with PI3 kinases, containing same as active ingredient” (KOREA RESEARCH INSTITUTE OF CHEMICAL TECHNOLOGY, priority 2015, dated 2020)

Tests used:
PI3 Kinase (p120γ) (h) = target: T1, PI3 Kinase (p120γ) (h) (Homo sapiens, UniProt P48736); assay: Inhibition of phosphatidylinositol 3-kinase gamma (PI3K γ), pAkt Western blotting in C5a-stimulated RAW264.7 macrophages; type: cell-based, mouse; conditions: ATP=10 uM, sample concentration=100 nM
T1 construct: endogenous in cells; host or cells: RAW264.7
T1 sequence (P48736 whole entry): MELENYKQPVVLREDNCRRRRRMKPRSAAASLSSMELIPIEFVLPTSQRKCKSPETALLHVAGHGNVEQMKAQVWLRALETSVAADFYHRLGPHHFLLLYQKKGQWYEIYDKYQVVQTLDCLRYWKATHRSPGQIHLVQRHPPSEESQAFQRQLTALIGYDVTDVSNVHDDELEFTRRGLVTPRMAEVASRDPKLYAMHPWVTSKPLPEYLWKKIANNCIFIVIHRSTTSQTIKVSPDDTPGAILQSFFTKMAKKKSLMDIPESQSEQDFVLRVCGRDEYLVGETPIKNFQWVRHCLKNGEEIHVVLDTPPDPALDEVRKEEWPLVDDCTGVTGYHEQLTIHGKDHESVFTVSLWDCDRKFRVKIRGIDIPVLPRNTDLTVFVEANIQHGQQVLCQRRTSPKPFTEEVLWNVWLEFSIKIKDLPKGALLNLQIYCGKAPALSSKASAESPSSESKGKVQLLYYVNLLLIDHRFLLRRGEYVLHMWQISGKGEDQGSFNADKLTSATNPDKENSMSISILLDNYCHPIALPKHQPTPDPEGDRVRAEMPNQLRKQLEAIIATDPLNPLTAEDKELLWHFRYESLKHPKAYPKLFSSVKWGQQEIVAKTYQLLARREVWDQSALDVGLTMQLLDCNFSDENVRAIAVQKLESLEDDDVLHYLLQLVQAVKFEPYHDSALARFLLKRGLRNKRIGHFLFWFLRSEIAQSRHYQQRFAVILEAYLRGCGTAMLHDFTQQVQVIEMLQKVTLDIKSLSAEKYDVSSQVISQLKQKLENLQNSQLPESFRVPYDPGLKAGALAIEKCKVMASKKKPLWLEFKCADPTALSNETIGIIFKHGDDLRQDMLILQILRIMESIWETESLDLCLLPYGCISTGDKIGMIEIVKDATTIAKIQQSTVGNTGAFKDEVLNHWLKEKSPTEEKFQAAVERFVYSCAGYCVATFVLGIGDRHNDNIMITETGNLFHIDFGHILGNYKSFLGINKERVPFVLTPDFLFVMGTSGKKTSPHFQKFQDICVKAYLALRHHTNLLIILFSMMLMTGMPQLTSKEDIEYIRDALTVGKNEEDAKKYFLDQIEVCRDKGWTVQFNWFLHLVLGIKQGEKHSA
Description: (§1) The stimulated cells were transferred in a 1.5 mL tube, followed by centrifugation at 3000 rpm for 1 minute. 100 μL of RIPA buffer (radioimmunoprecipitation assay buffer, 50 mM Tris-HCl, 5 mM EDTA, 150 mM NaCl, 1% NP-40, 1 mM PMSF, pH 8.0; ELPIS, Korea) was added thereto, which was stored in a 4° C. refrigerator for 12 hours. Centrifugation was performed at 4° C. at 14,000 rpm for 20 minutes. The supernatant was transferred into a new 1.5 mL tube. Protein was quantified by BCA (bicinchoninic acid) method and samples were prepared. The composition of the sample was as follows: sample buffer (ELPIS, EBA-1052) 5×, protein 10 μg, and 1× sample buffer to make the total volume 20 μL. The sample was heated at 100° C. for 5 minutes. The evaporated water vapor was condensed in a refrigerator. The liquid stained on the wall was fallen down by centrifugation for a few seconds. The sample proceeded to 10% SDS (Sodium Dodecyl Sulfate) acrylamide gel for separation. The separated protein was transferred onto PVDF (poly-vinyl difluoride) membrane, followed by reaction with pAkt (phospho protein kinase B) antibody (Ser473 or Thr308; Cell signaling, 9271s or 13038s) for 12 hours at 4° C. The membrane was washed with TBST (Tris-Buffered Saline with Tween 20, 10 mM Tris-HCl, pH 7.5, 150 mM NaCl, 0.1% Tween-20) three times for 5 minutes each, to which the secondary antibody (rabbit antibody, Santacruz, sc-2004) was added, followed by reaction at room temperature for 2 hours. The membrane was washed with TBST three times for 10 minutes each, to which ECL (enhanced chemiluminescence, Thermo, NCI34095KR) was sprayed. Bands were investigated by using LAS-3000.
The inhibition of phosphatidylinositol 3 kinase gamma (PI3K γ) by those compounds prepared in Examples 1˜98 was investigated by the following experiment. The inhibition activity of each compound was measured in the following conditions: ATP=10 uM, and sample concentration=100 nM.
(§2) Macrophages (RAW264.7) cultured in DMEM (Dulbecco's Modified Eagle Medium, Hyclon, SH30243.01) supplemented with 10% fetal bovine serum (Hyclon, USA) were distributed in a 12-well plate at the density of 1,000,000 cells/well. The cells were stabilized in a 37° C. CO2 for 24 hours and then treated with each compound for 1 and half hours. The cells were treated with 10 ng/mL of C5a (complement component 5a, 10 μg/mL; R&D, 2150-C5) to increase the intracellular activity of PI3K gamma. 5 minutes later, the medium was discarded and the cells were washed with cold PBS (phosphate buffered saline, Gibco, 14190-250). PBS was then eliminated completely by using a pipette. Western blotting was performed according to the same manner as described in step 2 of Experimental Example 1 to evaluate the intracellular PI3K gamma activity.

[1] = target: T2, PI3 Kinase (p110δ/p85α) (h) (Homo sapiens, UniProt O00329); assay: Inhibition of phosphatidylinositol 3-kinase delta (PI3K δ), pAkt Western blotting in IgM-stimulated Raji cells; type: cell-based; conditions: ATP=10 uM, sample concentration=100 nM
T2 construct: endogenous in cells; host or cells: Raji
T2 sequence (O00329 whole entry): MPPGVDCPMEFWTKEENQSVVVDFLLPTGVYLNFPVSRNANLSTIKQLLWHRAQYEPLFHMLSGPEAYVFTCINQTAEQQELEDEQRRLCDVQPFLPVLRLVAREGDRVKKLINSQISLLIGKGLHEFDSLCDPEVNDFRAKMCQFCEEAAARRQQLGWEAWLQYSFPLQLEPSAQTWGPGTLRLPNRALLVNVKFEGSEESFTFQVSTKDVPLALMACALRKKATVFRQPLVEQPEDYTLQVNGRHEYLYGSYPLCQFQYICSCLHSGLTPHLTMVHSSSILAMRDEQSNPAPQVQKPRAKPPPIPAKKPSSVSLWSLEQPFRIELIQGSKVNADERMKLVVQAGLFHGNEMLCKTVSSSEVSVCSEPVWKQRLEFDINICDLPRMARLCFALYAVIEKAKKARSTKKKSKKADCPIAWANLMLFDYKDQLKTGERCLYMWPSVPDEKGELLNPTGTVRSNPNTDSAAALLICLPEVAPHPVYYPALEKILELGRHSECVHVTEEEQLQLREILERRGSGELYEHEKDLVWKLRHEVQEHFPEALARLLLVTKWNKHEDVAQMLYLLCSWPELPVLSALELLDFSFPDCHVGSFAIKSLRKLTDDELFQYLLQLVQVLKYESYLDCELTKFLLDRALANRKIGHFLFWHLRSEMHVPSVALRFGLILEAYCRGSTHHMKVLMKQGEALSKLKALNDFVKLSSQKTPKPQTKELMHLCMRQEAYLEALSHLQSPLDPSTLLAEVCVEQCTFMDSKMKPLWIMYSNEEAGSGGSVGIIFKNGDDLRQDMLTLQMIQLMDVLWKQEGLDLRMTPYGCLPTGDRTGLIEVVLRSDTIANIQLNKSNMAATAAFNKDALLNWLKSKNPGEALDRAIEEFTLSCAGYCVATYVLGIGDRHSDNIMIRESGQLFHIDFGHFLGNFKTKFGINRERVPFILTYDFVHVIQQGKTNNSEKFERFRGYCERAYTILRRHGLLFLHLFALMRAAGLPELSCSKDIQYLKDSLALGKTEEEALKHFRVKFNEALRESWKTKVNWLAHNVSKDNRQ
T2 sequence (P27986 whole entry partner): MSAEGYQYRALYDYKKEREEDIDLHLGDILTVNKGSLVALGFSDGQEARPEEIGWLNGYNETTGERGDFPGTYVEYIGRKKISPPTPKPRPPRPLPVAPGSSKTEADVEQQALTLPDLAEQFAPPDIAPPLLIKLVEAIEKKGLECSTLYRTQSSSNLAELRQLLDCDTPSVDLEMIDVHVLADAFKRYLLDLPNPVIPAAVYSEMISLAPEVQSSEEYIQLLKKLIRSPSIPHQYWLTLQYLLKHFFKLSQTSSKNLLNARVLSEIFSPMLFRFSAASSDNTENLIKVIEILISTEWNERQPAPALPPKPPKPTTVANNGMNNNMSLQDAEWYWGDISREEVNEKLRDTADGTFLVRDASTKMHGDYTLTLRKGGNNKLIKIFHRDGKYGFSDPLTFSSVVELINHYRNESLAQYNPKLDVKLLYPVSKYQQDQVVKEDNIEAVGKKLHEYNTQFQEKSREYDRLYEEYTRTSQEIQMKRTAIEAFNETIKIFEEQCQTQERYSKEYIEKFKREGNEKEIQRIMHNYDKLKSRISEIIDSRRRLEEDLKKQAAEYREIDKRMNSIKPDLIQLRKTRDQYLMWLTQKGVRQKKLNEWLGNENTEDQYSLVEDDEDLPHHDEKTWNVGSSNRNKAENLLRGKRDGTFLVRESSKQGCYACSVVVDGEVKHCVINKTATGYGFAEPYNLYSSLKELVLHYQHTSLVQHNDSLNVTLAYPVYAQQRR
Description: as §1
The inhibition of phosphatidylinositol 3 kinase delta (PI3K δ) by those compounds prepared in Examples 1˜98 was investigated by the following experiment. The inhibition activity of each compound was measured in the following conditions: ATP=10 uM, and sample concentration=100 nM.
as §2, with “Raji cells” for “Macrophages (RAW264.7)”, “RPMI1640 (Hyclone, SH30027.02)” for “DMEM (Dulbecco's Modified Eagle Medium, Hyclon, SH30243.01)”, “0.25 μg/mL” for “10 ng/mL”, “IgM (immunoglobulin M, Southern Biotech, USA)” for “C5a (complement component 5a, 10 μg/mL; R&D, 2150-C5)”, “delta. 30” for “gamma. 5”, “delta” for “gamma”

C[C@H](Nc1nc(N)nc2[nH]cnc(=O)c12)c1nn2ccc(Cl)c2c(=O)n1-c1ccccc1 [Example 86, (S)-7-amino-5-((1-(5-chloro-4-oxo-3-phenyl-3,4-dihydropyrrolo[2,1-f][1,2,4]triazine-2-yl)ethyl)amino)pyrimido[4,5-d]pyrimidine-4(1H)-one]
IC50 (PI3 Kinase (p120γ) (h)): 0.01 to 0.5 µM | IC50 [1]: 0.01 to 0.5 µM

CN1CNc2ncnc(N3CCC[C@H]3c3nc4cccc(Cl)c4c(=O)n3-c3ccccc3)c2C1=O [Example 42, (S)-5-(2-(5-chloro-4-oxo-3-phenyl-3,4-dihydroquinazoline-2-yl)pyrrolidine-1-yl)-3-methyl-2,3-dihydropyrimido[4,5-d]pyrimidine-4(1H)-one]
IC50 (PI3 Kinase (p120γ) (h)): 0.01 to 0.5 µM | IC50 [1]: 0.01 to 0.5 µM

Nc1nc(N2CCC[C@H]2c2cc3cccc(Cl)c3c(=O)n2-c2ccccc2)c2c(=O)nc[nH]c2n1 [Example 94, (S)-7-amino-5-(2-(8-chloro-1-oxo-2-phenyl-1,2-dihydroisoquinoline-3-yl)pyrrolidine-1-yl)pyrimido[4,5-d]pyrimidine-4(1H)-one]
IC50 (PI3 Kinase (p120γ) (h)): 0.01 to 0.5 µM | IC50 [1]: 0.01 to 0.5 µM

C[C@H](Nc1nc(N)nc2c1C(=O)N(C)CN2)c1nc2cccc(Cl)c2c(=O)n1-c1ccccc1 [Example 48, (S)-7-amino-5-((1-(5-chloro-4-oxo-3-phenyl-3,4-dihydroquinazoline-2-yl)ethyl)amino)-3-methyl-2,3-dihydropyrimido[4,5-d]pyrimidine-4(1H)-one]
IC50 (PI3 Kinase (p120γ) (h)): < 0.01 µM | IC50 [1]: < 0.01 µM

CC(C)N1CNc2ncnc(N[C@@H](C)c3cc4cccc(Cl)c4c(=O)n3-c3ccccc3)c2C1=O [Example 64, (S)-5-(1-(8-chloro-1-oxo-2-phenyl-1,2-dihydroisoquinoline-3-yl)ethylamino)-3-isopropyl-2,3-dihydropyrimido[4,5-d]pyrimidine-4(1H)-one]
IC50 (PI3 Kinase (p120γ) (h)): > 0.5 µM | IC50 [1]: > 0.5 µM

C[C@H](Nc1ncnc2c1C(=O)CCN2)c1cc2cccc(Cl)c2c(=O)n1-c1ccccc1 [Example 97, (S)-4-((1-(8-chloro-1-oxo-2-phenyl-1,2-dihydroisoquinoline-3-yl)ethyl)amino)-7,8-dihydropyrido[2,3-d]pyrimidine-5(6H)-one]
IC50 (PI3 Kinase (p120γ) (h)): 0.01 to 0.5 µM | IC50 [1]: < 0.01 µM

CN1CNc2ncnc(N3CCC[C@H]3c3nc4cccc(Cl)c4c(=O)n3-c3cccc(F)c3)c2C1=O [Example 44, (S)-5-(2-(5-chloro-3-(3-fluorophenyl)-4-oxo-3,4-dihydroquinazoline-2-yl)pyrrolidine-1-yl)-3-methyl-2,3-dihydropyrimido[4,5-d]pyrimidine-4(1H)-one]
IC50 (PI3 Kinase (p120γ) (h)): 0.01 to 0.5 µM | IC50 [1]: < 0.01 µM

C[C@H](Nc1ncnc2[nH]cnc(=O)c12)c1nc2cccc(Cl)c2c(=O)n1-c1cccc(F)c1 [Example 68, (S)-5-((1-(5-chloro-3-(3-fluorophenyl)-4-oxo-3,4-dihydroquinazoline-2-yl)ethyl)amino)pyrimido[4,5-d]pyrimidine-4(1H)-one]
IC50 (PI3 Kinase (p120γ) (h)): > 0.5 µM | IC50 [1]: > 0.5 µM

CN1CNc2nc(N)nc(N3CCC[C@H]3c3cc4cccc(Cl)c4c(=O)n3-c3ccccc3)c2C1=O [Example 59, (S)-7-amino-5-(2-(8-chloro-1-oxo-2-phenyl-1,2-dihydroisoquinoline-3-yl)pyrrolidine-1-yl)-3-methyl-2,3-dihydropyrimido[4,5-d]pyrimidine-4(1H)-one]
IC50 (PI3 Kinase (p120γ) (h)): > 0.5 µM | IC50 [1]: > 0.5 µM

C[C@H](Nc1ncnc2[nH]cnc(=O)c12)c1cc2cccc(Cl)c2c(=O)n1-c1ccccc1 [Example 70, (S)-5-((1-(8-chloro-1-oxo-2-phenyl-1,2-dihydroisoquinoline-3-yl)ethyl)amino)pyrimido[4,5-d]pyrimidine-4(1H)-one]
IC50 (PI3 Kinase (p120γ) (h)): 0.01 to 0.5 µM | IC50 [1]: 0.01 to 0.5 µM

CC[C@H](Nc1ncnc2c1C(=O)N(C)CN2)c1nc2cccc(F)c2c(=O)n1-c1ccccc1 [Example 41, (S)-5-((1-(5-fluoro-4-oxo-3-phenyl-3,4-dihydroquinazoline-2-yl)propyl)amino)-3-methyl-2,3-dihydropyrimido[4,5-d]pyrimidine-4(1H)-one]
IC50 (PI3 Kinase (p120γ) (h)): 0.01 to 0.5 µM | IC50 [1]: 0.01 to 0.5 µM

C[C@H](Nc1nc(N)nc2c1C(=O)N(C)CN2)c1nc2cccc(Cl)c2c(=O)n1-c1cccnc1 [Example 49, (S)-7-amino-5-((1-(5-chloro-4-oxo-3-(pyridine-3-yl)-3,4-dihydroquinazoline-2-yl)ethyl)amino)-3-methyl-2,3-dihydropyrimido[4,5-d]pyrimidine-4(1H)-one]
IC50 (PI3 Kinase (p120γ) (h)): 0.01 to 0.5 µM | IC50 [1]: < 0.01 µM

CC[C@H](Nc1ncnc2c1C(=O)N(C(C)C)CN2)c1nc2cccc(F)c2c(=O)n1-c1ccccc1 [Example 65, (S)-5-(1-(5-fluoro-4-oxo-3-phenyl-3,4-dihydroquinazoline-2-yl)propylamino)-3-isopropyl-2,3-dihydropyrimido[4,5-d]pyrimidine-4(1H)-one]
IC50 (PI3 Kinase (p120γ) (h)): > 0.5 µM | IC50 [1]: > 0.5 µM

CC(Nc1ncnc2c1C(=O)N(C)CN2)c1cc2ccccc2nc1-c1ccccc1 (stereo not shown) [Example 39, 3-methyl-5-((1-(2-phenylquinoline-3-yl)ethyl)amino)-2,3-dihydropyrimido[4,5-d]pyrimidine-4(1H)-one]
IC50 (PI3 Kinase (p120γ) (h)): 0.01 to 0.5 µM | IC50 [1]: 0.01 to 0.5 µM

CC[C@H](Nc1nc(N)nc2c1C(=O)N(C)CN2)c1nc2cccc(F)c2c(=O)n1-c1ccccc1 [Example 54, (S)-7-amino-5-((1-(5-fluoro-4-oxo-3-phenyl-3,4-dihydroquinazoline-2-yl)propyl)amino)-3-methyl-2,3-dihydropyrimido[4,5-d]pyrimidine-4(1H)-one]
IC50 (PI3 Kinase (p120γ) (h)): 0.01 to 0.5 µM | IC50 [1]: 0.01 to 0.5 µM

C[C@H](Nc1ncnc2[nH]cnc(=O)c12)c1nc2cccc(Cl)c2c(=O)n1-c1cccnc1 [Example 67, (S)-5-((1-(5-chloro-4-oxo-3-(pyridine-3-yl)-3,4-dihydroquinazoline-2-yl)ethyl)amino)pyrimido[4,5-d]pyrimidine-4(1H)-one]
IC50 (PI3 Kinase (p120γ) (h)): > 0.5 µM | IC50 [1]: > 0.5 µM

Nc1nc(N2CCC[C@H]2c2nc3cccc(Cl)c3c(=O)n2-c2cccc(F)c2)c2c(=O)nc[nH]c2n1 [Example 92, (S)-7-amino-5-(2-(5-chloro-3-(3-fluorophenyl)-4-oxo-3,4-dihydroquinazoline-2-yl)pyrrolidine-1-yl)pyrimido[4,5-d]pyrimidine-4(1H)-one]
IC50 (PI3 Kinase (p120γ) (h)): > 0.5 µM | IC50 [1]: > 0.5 µM

C[C@H](Nc1nc(N)nc2[nH]cnc(=O)c12)c1nn2ccc(Cl)c2c(=O)n1-c1cccc(F)c1 [Example 87, (S)-7-amino-5-((1-(5-chloro-3-(3-fluorophenyl)-4-oxo-3,4-dihydropyrrolo[2,1-f][1,2,4]triazine-2-yl)ethyl)amino)pyrimido[4,5-d]pyrimidine-4(1H)-one]
IC50 (PI3 Kinase (p120γ) (h)): 0.01 to 0.5 µM | IC50 [1]: < 0.01 µM

CN1CNc2nc(N)nc(N3CCC[C@H]3c3nc4cccc(Cl)c4c(=O)n3-c3cccc(F)c3)c2C1=O [Example 57, (S)-7-amino-5-(2-(5-chloro-3-(3-fluorophenyl)-4-oxo-3,4-dihydroquinazoline-2-yl)pyrrolidine-1-yl)-3-methyl-2,3-dihydropyrimido[4,5-d]pyrimidine-4(1H)-one]
IC50 (PI3 Kinase (p120γ) (h)): 0.01 to 0.5 µM | IC50 [1]: > 0.5 µM

O=c1nc[nH]c2ncnc(N3CCC[C@H]3c3nc4cccc(Cl)c4c(=O)n3-c3cccnc3)c12 [Example 76, (S)-5-(2-(5-chloro-4-oxo-3-(pyridine-3-yl)-3,4-dihydroquinazoline-2-yl)pyrrolidine-1-yl)pyrimido[4,5-d]pyrimidine-4(1H)-one]
IC50 (PI3 Kinase (p120γ) (h)): > 0.5 µM | IC50 [1]: > 0.5 µM
